Assay results as given in PMC3569060 (Molecular cancer therapeutics, 2012).

Experiments:
[1] = biological target: T1, ScRR1 (Saccharomyces cerevisiae, UniProt P21524); assay: X-ray crystal structure, […] Å, crystal soaking; assay type: binding; conditions: allosteric S-site; Mg2+ bound at alpha- and gamma-phosphates
T1 sequence (P21524 1-888): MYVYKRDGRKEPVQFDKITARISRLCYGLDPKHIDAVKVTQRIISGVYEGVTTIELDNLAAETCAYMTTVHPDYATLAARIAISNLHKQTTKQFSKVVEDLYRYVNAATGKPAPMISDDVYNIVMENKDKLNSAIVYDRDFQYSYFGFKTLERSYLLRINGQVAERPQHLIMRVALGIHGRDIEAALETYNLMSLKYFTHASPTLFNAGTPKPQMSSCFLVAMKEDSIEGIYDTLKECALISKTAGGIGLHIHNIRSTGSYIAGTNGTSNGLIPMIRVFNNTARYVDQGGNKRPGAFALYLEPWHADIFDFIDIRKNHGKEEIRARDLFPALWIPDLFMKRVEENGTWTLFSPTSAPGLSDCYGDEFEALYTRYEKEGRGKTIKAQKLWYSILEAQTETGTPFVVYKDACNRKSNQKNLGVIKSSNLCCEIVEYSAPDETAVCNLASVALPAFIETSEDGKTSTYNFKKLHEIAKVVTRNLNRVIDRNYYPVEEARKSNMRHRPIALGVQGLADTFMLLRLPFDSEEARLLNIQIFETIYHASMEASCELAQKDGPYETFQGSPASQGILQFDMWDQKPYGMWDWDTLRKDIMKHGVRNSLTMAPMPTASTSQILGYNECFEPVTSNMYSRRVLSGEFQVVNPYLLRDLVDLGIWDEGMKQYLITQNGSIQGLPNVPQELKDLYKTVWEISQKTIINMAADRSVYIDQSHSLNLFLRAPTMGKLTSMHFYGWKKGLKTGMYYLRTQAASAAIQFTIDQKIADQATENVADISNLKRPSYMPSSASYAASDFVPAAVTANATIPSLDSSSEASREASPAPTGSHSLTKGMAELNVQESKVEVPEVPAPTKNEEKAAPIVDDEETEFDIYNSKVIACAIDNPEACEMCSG

[2] = biological target: T2, hRR (hRR1 + hRR2) (Homo sapiens, UniProt P23921); assay type: biochemical
T2 sequence (P23921 1-792): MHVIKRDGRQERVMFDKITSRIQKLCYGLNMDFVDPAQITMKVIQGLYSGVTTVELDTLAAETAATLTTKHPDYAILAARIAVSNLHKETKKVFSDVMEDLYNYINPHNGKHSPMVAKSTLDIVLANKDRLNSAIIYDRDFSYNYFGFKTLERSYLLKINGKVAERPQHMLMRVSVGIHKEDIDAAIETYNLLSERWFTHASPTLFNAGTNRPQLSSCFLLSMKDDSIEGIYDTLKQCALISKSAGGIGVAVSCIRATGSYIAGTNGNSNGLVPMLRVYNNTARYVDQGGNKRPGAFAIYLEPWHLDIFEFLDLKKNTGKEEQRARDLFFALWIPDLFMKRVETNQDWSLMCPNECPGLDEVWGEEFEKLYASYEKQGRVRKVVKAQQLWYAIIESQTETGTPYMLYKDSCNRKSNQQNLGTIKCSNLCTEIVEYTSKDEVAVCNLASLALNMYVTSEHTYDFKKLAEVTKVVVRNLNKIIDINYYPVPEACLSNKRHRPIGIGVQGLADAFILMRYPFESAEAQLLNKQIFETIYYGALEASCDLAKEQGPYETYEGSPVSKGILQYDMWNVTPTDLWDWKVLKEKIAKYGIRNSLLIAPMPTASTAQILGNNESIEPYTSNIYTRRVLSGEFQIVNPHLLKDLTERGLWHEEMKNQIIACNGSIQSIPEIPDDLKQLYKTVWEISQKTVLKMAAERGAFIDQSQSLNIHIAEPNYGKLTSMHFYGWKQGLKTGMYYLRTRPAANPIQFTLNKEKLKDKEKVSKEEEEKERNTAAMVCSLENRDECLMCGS
T2 sequence (P31350 1-389 partner): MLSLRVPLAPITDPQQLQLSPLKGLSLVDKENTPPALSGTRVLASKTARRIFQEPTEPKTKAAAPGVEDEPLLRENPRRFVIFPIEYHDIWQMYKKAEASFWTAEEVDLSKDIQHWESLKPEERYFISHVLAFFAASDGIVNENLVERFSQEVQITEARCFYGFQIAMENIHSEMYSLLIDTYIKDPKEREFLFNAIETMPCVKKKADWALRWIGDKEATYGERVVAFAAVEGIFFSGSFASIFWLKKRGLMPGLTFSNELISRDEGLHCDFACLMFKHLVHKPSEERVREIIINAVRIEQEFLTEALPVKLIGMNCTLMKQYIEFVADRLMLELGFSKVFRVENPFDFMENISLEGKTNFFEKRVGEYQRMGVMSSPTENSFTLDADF

SMILES: O=[N+]([O-])c1ccc2c(ccn2[C@H]2C[C@H](O)[C@@H](COP(=O)(O)OP(=O)(O)OP(=O)(O)O)O2)c1 [5-NITP]
- X-ray crystal structure, 2.3 Å, crystal soaking [1]: clearly shows electron density for 5-NITP bound at the S-site
- IC50 [2]: 170 ± 5 µM
